US20230148299A1, “FEM1B PROTEIN BINDING AGENTS AND USES THEREOF” (The Regents Of The University Of California, priority 2020, published 2023)

Key:
[1] = system: GFP-Fnip1 degron reporter; assay: GFP-Fnip1 degron reporter (GFP/mCherry) by flow cytometry; type: cell-based; conditions: GFP/mCherry ratio by FACS
Procedure: HEK293T cells were transfected 24 hours before flow cytometery with the GFP-Fnip1 degron reporter+/−Fem1b.
FNIP1 variants were expressed in cells and tested for interaction with ^FLAGFEM1B by co-immunoprecipitation, and for degradation by measuring their abundance in the presence or absence of FEM1B. […] FEM1B variants were immunoprecipitated and bound FNIP1 and FLCN were detected by Western blotting. […] The FNIP1 degron was fused to GFP (GFP^degron) and expressed from the same plasmid as an IRES controlled mCherry. mCherry provides normalization for GFP fluorescence in each cell. […] Levels of GFP^degron and mCherry were determined by FACS, and their ratio is depicted for presence or absence of FEM1B variants. […] Cells were transfected with the GFP^degron/mCherry reporter, and analyzed for GFP and mCherry fluorescence by FACS. […] A TAMRA-labeled FNIP1 degron peptide was incubated with purified FEMIB or the control CRL1 adaptor FBXL17, and binding was measured by fluorescence polarization of the peptide. […] The TAMRA-labeled FNIP1 degron was incubated with recombinant CUL2^FEM1B (unmodified or NEDD8-modified), E1, ubiquitin, ATP and the E2 enzymes UBE2D3 and/or UBE2R1. Ubiquitylation was monitored by gel electrophoresis and fluorescence detection.

[2] = molecular target: FEM1B (Homo sapiens, UniProt Q9UK73); assay: Fluorescence polarization binding of TAMRA-labeled FNIP1 degron peptide to recombinant FEM1B; conditions: degron peptide treated with agent
Description: FEM1B binds a conserved central degron in FNIP1. Deletion analysis of FNIP1 identifies a stretch of 20 amino acids that is required for its binding to FEM1B and its proteasomal degradation. FNIP1 variants were expressed in cells and tested for interaction with ^FLAGFEM1B by co-immunoprecipitation, and for degradation by measuring their abundance in the presence or absence of FEM1B. The FNIP1 degron is required for FEM1B binding and proteasomal degradation. […] FEM1B variants were immunoprecipitated and bound FNIP1 and FLCN were detected by Western blotting. The FNIP1 degron is sufficient to mediate FEM1B-dependent degradation. The FNIP1 degron was fused to GFP (GFP^degron) and expressed from the same plasmid as an IRES controlled mCherry. mCherry provides normalization for GFP fluorescence in each cell. […] Levels of GFP^degron and mCherry were determined by FACS, and their ratio is depicted for presence or absence of FEM1B variants. Deletion of FEM1B prevents FNIP1-degron dependent degradation. […] Cells were transfected with the GFP^degron/mCherry reporter, and analyzed for GFP and mCherry fluorescence by FACS. […] A TAMRA-labeled FNIP1 degron peptide was incubated with purified FEMIB or the control CRL1 adaptor FBXL17, and binding was measured by fluorescence polarization of the peptide. […] Ubiquitylation was monitored by gel electrophoresis and fluorescence detection. […]

[3] = molecular target: FEM1B-FNIP1 (Homo sapiens, UniProt Q9UK73); assay: Fluorescence polarization between FEM1B and FNIP1 (covalent ligand screen); type: binding; conditions: DMSO = 100, FP between FEM1B and FNIP1; for remaining activity at 5 µM: compound at 5 μM, read-out: Normalized FP 5 μM; for activity at 50 µM: compound at 50 μM, read-out: Normalized FP 50 μM
Description: FIG. 11. Fluorescence polarization screen to identify functional FEM1B-FNIP1-targeting covalent ligands.
FEM1B binds a conserved central degron in FNIP1. Deletion analysis of FNIP1 identifies a stretch of 20 amino acids that is required for its binding to FEM1B and its proteasomal degradation. FNIP1 variants were expressed in cells and tested for interaction with ^FLAGFEM1B by co-immunoprecipitation, and for degradation by measuring their abundance in the presence or absence of FEM1B. The FNIP1 degron is required for FEM1B binding and proteasomal degradation. […] FEM1B variants were immunoprecipitated and bound FNIP1 and FLCN were detected by Western blotting. The FNIP1 degron is sufficient to mediate FEM1B-dependent degradation. The FNIP1 degron was fused to GFP (GFP^degron) and expressed from the same plasmid as an IRES controlled mCherry. mCherry provides normalization for GFP fluorescence in each cell. […] Levels of GFP^degron and mCherry were determined by FACS, and their ratio is depicted for presence or absence of FEM1B variants. Deletion of FEM1B prevents FNIP1-degron dependent degradation. The FEM1B locus was deleted in 293T cells using CRISPR/Cas9. Cells were transfected with the GFP^degron/mCherry reporter, and analyzed for GFP and mCherry fluorescence by FACS. FEM1B directly binds the FNIP1 degron in vitro. A TAMRA-labeled FNIP1 degron peptide was incubated with purified FEMIB or the control CRL1 adaptor FBXL17, and binding was measured by fluorescence polarization of the peptide. The FNIP1 degron is sufficient to mediate CUL2^FEM1B-dependent ubiquitylation. The TAMRA-labeled FNIP1 degron was incubated with recombinant CUL2^FEM1B (unmodified or NEDD8-modified), E1, ubiquitin, ATP and the E2 enzymes UBE2D3 and/or UBE2R1. Ubiquitylation was monitored by gel electrophoresis and fluorescence detection.

[4] = molecular target: T1, BRD4 (Homo sapiens, UniProt O60885); assay: BRD4 degradation by Western blot in 231MFP breast cancer cells; type: cell-based; conditions: 231MFP cells, NJH-01-106 12 hours, MZ1 4 hours
T1 construct: endogenous in cells; host or cells: 231MFP breast cancer cells
Procedure: 231MFP breast cancer cells were treated for 12 hours with NJH-01-106, and 4 hours with known BRD4 PROTAC MZ1. BRD4 and loading control GAPDH levels were assessed by Western blotting following treatment with NJH-01-106 or MZ1, as described above, and are shown in FIG. 4.
Western Blot Protocol. Proteins were resolved by SDS-PAGE (4-20% TGX gels, Bio-Rad Laboratories, Inc.) and transferred to nitrocellulose membranes using the Trans-Blot Turbo transfer system (Bio-Rad). Membranes were blocked with 5% BSA in Tris-buffered saline containing Tween 20 (TBST) solution for 1 h at room temperature, washed in TBST and probed with primary antibody diluted in diluent, as recommended by the various manufacturers, overnight at 4° C. Primary antibodies used were: BRD4 (Cell Signaling Technologies #13440), GAPDH (ProteinTech 60004-1-Ig), FEM1B (ProteinTech 19544-1-AP). Following washes with TBST, the blots were incubated in the dark with secondary antibodies purchased from Li-Cor Biosciences and used at 1:10,000 dilution in 5% BSA in TBST at room temperature for 1 h. Blots were visualized using an Odyssey Li-Cor scanner after additional washes. Protein intensity was quantified using ImageJ software.

Chain of FEM1B-FNIP1 (Q9UK73 whole entry): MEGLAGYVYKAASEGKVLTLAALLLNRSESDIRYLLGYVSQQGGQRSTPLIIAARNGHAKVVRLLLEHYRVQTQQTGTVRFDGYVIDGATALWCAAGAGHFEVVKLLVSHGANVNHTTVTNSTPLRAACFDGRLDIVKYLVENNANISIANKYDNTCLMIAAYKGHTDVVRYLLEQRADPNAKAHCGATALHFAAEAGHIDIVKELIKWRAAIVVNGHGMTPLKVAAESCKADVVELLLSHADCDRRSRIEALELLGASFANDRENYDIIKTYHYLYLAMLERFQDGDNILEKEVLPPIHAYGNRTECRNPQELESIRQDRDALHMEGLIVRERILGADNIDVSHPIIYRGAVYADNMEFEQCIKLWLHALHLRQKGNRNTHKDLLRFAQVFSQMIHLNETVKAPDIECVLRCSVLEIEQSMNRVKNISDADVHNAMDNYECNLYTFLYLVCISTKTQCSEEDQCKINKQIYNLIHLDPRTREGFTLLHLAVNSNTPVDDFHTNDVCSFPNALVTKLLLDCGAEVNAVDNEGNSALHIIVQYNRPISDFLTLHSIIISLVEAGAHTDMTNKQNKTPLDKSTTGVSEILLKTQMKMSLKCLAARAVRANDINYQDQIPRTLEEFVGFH
Chain of FEM1B (Q9UK73 whole entry, the tested form may be a part): as the sequence (Q9UK73 whole entry) above

| remaining activity at 5 µM [3] | activity at 50 µM [3] | degradation of BRD4 [4] | Compound | stability of GFP^degron reporter [1] | recognition of FNIP1 degron by FEM1B after treatment of degron with Cys-modifying agent [2] |
| --- | --- | --- | --- | --- | --- |
|  |  |  | CC(C)C[C@H](NC(=O)[C@H](CCc1ccccc1)NC(=O)CN1CCOCC1)C(=O)N[C@@H](Cc1ccccc1)C(=O)N[C@@H](CC(C)C)C(=O)[C@@]1(C)CO1 [carfilzomib] | stabilizes the GFP^degron reporter |  |
|  |  |  | NC(=O)CI [iodoacetamide] |  | strongly inhibited its recognition by FEM1B |
| 36.3% | 16.3% |  | N#CCCN(C(=O)CCl)c1ccc(F)cc1 [EN-NJH-015] |  |  |
| 98.1% | 101% |  | CC(Cl)C(=O)Nc1ccc2c(c1)OCCO2 (stereo not drawn) [EN-NJH-005] |  |  |
| 54.1% | 2.7% |  | N#CCCN(C(=O)CCl)c1cccc(Cl)c1 [EN-NJH-003] |  |  |
|  |  |  | C#CCCCCNC(=O)CI [IAyne] | stabilizes GFP^degron in cells |  |
| 43.7% | 11.3% |  | Cc1ccc(N(CCC#N)C(=O)CCl)cc1C [EN-NJH-016] |  |  |
| 15.6% | 19.1% |  | COc1cc2c(cc1OC)N(C(=O)CCl)CC2 [EN-NJH-020] |  |  |
|  |  |  | antimycin A | stabilized GFP^degron |  |
| 89.7% | 21.5% |  | C=CCOc1ccccc1CN(C(=O)CCl)c1ccc2c(c1)OCO2 [EN-NJH-006] |  |  |
| 31.3% | 14.2% |  | CC(=O)N1CCOc2ccc(N(CCC#N)C(=O)CCl)cc21 [NJH-01-085] |  |  |
| 105% | 115% |  | C=CC(=O)N(CCC#N)c1ccc2c(c1)OCCO2 [NJH-01-098] |  |  |
| 74.8% | 6% |  | O=C(CCl)N(Cc1cccs1)c1ccc2c(c1)OCCO2 [EN-NJH-009] |  |  |
| 26.5% | 15.2% |  | CC(C)(C)OC(=O)CN1CCOc2cc(N(CCC#N)C(=O)CCl)ccc21 [NJH-01-093] |  |  |
| 16.4% | 12% |  | Cc1cc(N(CCC#N)C(=O)CCl)ccc1Cl [EN-NJH-018] |  |  |
|  |  |  | CCN1C(=O)C=CC1=O [N-ethylmaleimide] |  | strongly inhibited its recognition by FEM1B |
| 44.1% | 19.4% |  | N#CCCN(C(=O)CCl)c1ccccc1 [EN-NJH-019] |  |  |

| remaining activity at 5 µM [3] | activity at 50 µM [3] | degradation of BRD4 [4] | Compound | stability of GFP^degron reporter [1] | recognition of FNIP1 degron by FEM1B after treatment of degron with Cys-modifying agent [2] |
| --- | --- | --- | --- | --- | --- |
| 54.9% | 12.6% |  | COc1cccc(CN(C(=O)CCl)c2ccc3c(c2)OCCO3)c1 [SB-02-092] |  |  |
| 97.9% | 113% |  | CC(Cl)C(=O)N(CCC#N)c1ccccc1 (stereo not drawn) [EN-NJH-008] |  |  |
| 40.1% | 8.82% |  | CCOc1ccc(N(CCC#N)C(=O)CCl)cc1 [EN-NJH-002] |  |  |
| 93.1% | 21.3% |  | O=C(CCl)Nc1ccc2c(c1)OCCO2 [EN-NJH-013] |  |  |
|  |  | degradation of BRD4 | Cc1sc2c(c1C)C(c1ccc(Cl)cc1)=N[C@@H](CC(=O)NCCCCCNC(=O)CN1CCOc3cc(N(CCC#N)C(=O)CCl)ccc31)c1nnc(C)n1-2 [EN106 linked to BRD4 inhibitor JQ1, (S)-2-chloro-N-(4-(2-((5-(2-(4-(4-chlorophenyl)-2,3,9-trimethyl-6H-thieno[3,2-f][1,2,4]triazolo[4,3-a][1,4]diazepin-6-yl)acetamido)pentyl)amino)-2-oxoethyl)-3,4-dihydro-2H-benzo[b][1,4]oxazin-7-yl)-N-(2-cyanoethyl)acetamide] |  |  |
| 46.8% | 14.6% |  | N#CCCN(C(=O)CCl)c1ccccc1F [EN-NJH-010] |  |  |
| 45.8% | 4.29% |  | Cc1ccc(N(CCC#N)C(=O)CCl)cc1 [EN-NJH-011] |  |  |
| 63.7% | 17.4% |  | Cc1cc(C)cc(N(CCC#N)C(=O)CCl)c1 [EN-NJH-017] |  |  |
| 86.4% | 26.8% |  | O=C(CCl)N(CC=Cc1ccccc1)c1ccc2c(c1)OCCO2 [EN-NJH-021] |  |  |
| 90.4% | 24.8% |  | COc1ccccc1N(CCC#N)C(=O)CCl [EN-NJH-012] |  |  |
| 94.8% | 21.8% |  | O=C(CCl)Nc1cc2c(cc1Cl)OCCO2 [EN-NJH-014] |  |  |
| 76.1% | 11.8% |  | CCN(C(=O)CCl)c1ccc2c(c1)OCO2 [EN-NJH-004] |  |  |
| 32.8% | 9.87% |  | CC(C)(C)OC(=O)N1CCOc2ccc(N(CCC#N)C(=O)CCl)cc21 [NJH-01-073] |  |  |
| 87.7% | 11.7% |  | O=C(CCl)Nc1cc2c(cc1Br)OCCO2 [EN-NJH-007] |  |  |
|  |  | degradation of BRD4 | Cc1ncsc1-c1ccc(CNC(=O)[C@@H]2C[C@@H](O)CN2C(=O)[C@@H](NC(=O)COCCOCCOCCNC(=O)C[C@@H]2N=C(c3ccc(Cl)cc3)c3c(sc(C)c3C)-n3c(C)nnc32)C(C)(C)C)cc1 [MZ1, reference compound] |  |  |
|  |  |  | CC(=O)N[C@@H](CS)C(=O)O [N-acetylcysteine] | does not affect the stability of the GFP^degron reporter |  |
| 97.8% | 19.1% |  | C=CCOc1ccccc1CN(C(=O)CCl)c1ccc2c(c1)OCCO2 [EN-NJH-001] |  |  |
